Reference: patent publication US20240116985A1, “STAPLED PEPTIDES AND METHODS THEREOF” (priority 2020, published 2024)
Where two headings read alike, the source gives them in different places.

Assays:
[1] = target: T1, beta-catenin/TCF4 engagement (Homo sapiens, UniProt P35222); assay: Nano-BRET target engagement assay (B-cat-Halo & TCF4-Luc in HEK293 cells); type: cell-based; details: read-out: NanoBRET Abs IC50
T1 construct: expressed in transfected cells; host or cells: HEK293
T1 sequence (P35222 1-781): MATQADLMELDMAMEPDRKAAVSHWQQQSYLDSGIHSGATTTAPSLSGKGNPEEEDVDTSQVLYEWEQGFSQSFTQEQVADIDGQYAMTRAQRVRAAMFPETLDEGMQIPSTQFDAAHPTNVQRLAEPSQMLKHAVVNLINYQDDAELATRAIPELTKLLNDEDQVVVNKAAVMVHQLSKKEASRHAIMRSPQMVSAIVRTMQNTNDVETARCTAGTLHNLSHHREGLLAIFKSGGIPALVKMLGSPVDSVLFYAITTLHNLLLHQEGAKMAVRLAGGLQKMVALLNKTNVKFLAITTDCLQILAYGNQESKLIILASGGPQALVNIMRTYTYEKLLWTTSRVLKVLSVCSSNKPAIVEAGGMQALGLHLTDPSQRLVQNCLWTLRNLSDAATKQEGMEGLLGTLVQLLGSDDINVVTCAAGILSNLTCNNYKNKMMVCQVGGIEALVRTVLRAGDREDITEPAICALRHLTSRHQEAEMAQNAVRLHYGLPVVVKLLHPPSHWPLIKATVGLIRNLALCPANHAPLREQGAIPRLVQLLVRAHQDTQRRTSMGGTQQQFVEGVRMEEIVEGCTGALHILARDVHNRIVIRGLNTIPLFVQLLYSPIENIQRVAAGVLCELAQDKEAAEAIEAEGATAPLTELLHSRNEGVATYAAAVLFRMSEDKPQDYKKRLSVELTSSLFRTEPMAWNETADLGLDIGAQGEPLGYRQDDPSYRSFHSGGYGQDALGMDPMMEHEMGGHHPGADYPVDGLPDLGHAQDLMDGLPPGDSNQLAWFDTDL

[2] = target: T2, full-length beta-Catenin (Uniprot ID P35222) (Homo sapiens, UniProt P35222); assay: Fluorescence polarization IC50 (beta-catenin / 5FAM-TCF4 10-53 competition); type: binding; details: fluorescence polarization; read-out: beta-Catenin FP IC50
T2 construct: 10 nM full-length beta-Catenin (Uniprot ID P35222)
T2 sequence (P35222 1-781): T1 sequence (P35222 1-781)

IC50 ([1]; absolute IC50)	IC50 [2]	IC50 [1]	SMILES
11 µM	0.036 µM	–	CC(=O)N1CCC[C@]12CC=CCCCC1(CCCC=CCCCOC(=O)N3CC[C@@](C(=O)N[C@@H](Cc4ccccc4Cl)C(=O)N[C@@H](Cc4csc5ccccc45)C(=O)N[C@@H](CCC(N)=O)C(N)=O)(C3)NC(=O)[C@H](Cc3ccccc3)NC(=O)[C@H](Cc3ccccc3)NC(=O)[C@H](C)NC(=O)[C@H](C)NC(=O)[C@H](Cc3ccccc3C(=O)O)NC(=O)[C@H](CC(=O)O)NC1=O)NC(=O)[C@H](CC(C)(C)C)NC(=O)[C@H](CC(=O)O)NC2=O (stereo partly drawn) [I-1657, Ac-PL3-Asp-Npg-B5-Asp-2COOHF-Ala-Ala-Phe-Phe-PyrS2-2C1F-BztA-Gln-NH2]
13.9 µM	0.031 µM	–	CC(=O)N1CCC[C@]12CC=CCCCC1(CCCC=CCCCCCC[C@@](C)(C(=O)N[C@@H](Cc3ccccc3)C(=O)N[C@@H](Cc3csc4ccccc34)C(=O)N[C@@H](CCC(N)=O)C(N)=O)NC(=O)[C@H](CCO)NC(=O)[C@H](Cc3ccccc3)NC(=O)[C@H](C)NC(=O)[C@H](C)NC(=O)[C@H](CCC(=O)O)NC(=O)[C@H](CC(=O)O)NC1=O)NC(=O)[C@H](CCC(C)C)NC(=O)[C@H](CC(=O)O)NC2=O (stereo partly drawn) [I-1537, Ac-PL3-Asp-Hleu-B5-Asp-Glu-Ala-Ala-Phe-Hse-S8-Phe-BztA-Gln-NH2]
21.4 µM	0.005 µM	–	CCCC[C@@H]1NC(=O)[C@H](CC(=O)O)NC(=O)[C@]2(CC=CCCCC3(CCCC=CCCCOC(=O)N4CC[C@@](C(=O)N[C@@H](Cc5ccsc5)C(=O)N[C@@H](Cc5csc6ccccc56)C(=O)N[C@@H](CCC(N)=O)C(N)=O)(C4)NC(=O)[C@H](CCCC)NC(=O)[C@H](Cc4ccccc4)NC(=O)[C@H](C)NC(=O)[C@H](C)NC(=O)[C@H](CC(=O)O)NC(=O)[C@H](CC(=O)O)NC3=O)NC1=O)CCCN2C(C)=O (stereo partly drawn) [I-1401, Ac-PL3-Asp-nLeu-B5-Asp-Asp-Ala-Ala-Phe-nLeu-PyrS2-3Thi-BztA-Gln-NH2]
> 20 µM	0.024 µM	–	CC(=O)N1CCC[C@]12CC=CCCCC1(CCCC=CCCCOC(=O)N3CC[C@@](C(=O)N[C@@H](Cc4ccsc4)C(=O)N[C@@H](Cc4csc5ccccc45)C(=O)N[C@@H](CCC(N)=O)C(N)=O)(C3)NC(=O)[C@H](CC(C)C)NC(=O)[C@H](Cc3ccccc3)NC(=O)[C@H](C)NC(=O)[C@H](C)NC(=O)[C@H](CC(=O)O)NC(=O)[C@H](CC(=O)O)NC1=O)NC(=O)[C@H]([C@@H](C)O)NC(=O)[C@H](CC(=O)O)NC2=O (stereo partly drawn) [I-1515, Ac-PL3-Asp-Thr-B5-Asp-Asp-Ala-Ala-Phe-Leu-PyrS2-3Thi-BztA-Gln-NH2]
14.5 µM	0.009 µM	–	CC(=O)N1CCC[C@]12CC=CCCCC1(CCCC=CCCCOC(=O)N3CC[C@@](C(=O)N[C@@H](Cc4ccsc4)C(=O)N[C@@H](Cc4csc5ccccc45)C(=O)N[C@@H](CCC(N)=O)C(N)=O)(C3)NC(=O)[C@H](CC(N)=O)NC(=O)[C@H](Cc3ccccc3)NC(=O)[C@H](C)NC(=O)[C@H](C)NC(=O)[C@H](CN(CC(=O)O)Cc3c(F)c(F)c(F)c(F)c3F)NC(=O)[C@H](CC(=O)O)NC1=O)NC(=O)[C@H](CC(C)(C)C)NC(=O)[C@H](CC(=O)O)NC2=O (stereo partly drawn) [I-1638, Ac-PL3-Asp-Npg-B5-Asp-[Pfbn]GA-Ala-Ala-Phe-Asn-PyrS2-3Thi-BztA-Gln-NH2]
–	0.145 µM	> 20 µM	CC(=O)N1CCC[C@]12CC=CCCCC[C@@](C)(C(=O)N[C@@H](CC(=O)O)C(=O)N[C@@H](CC(=O)O)C(=O)N[C@@H](C)C(=O)N[C@@H](C)C(=O)N[C@@H](Cc1ccccc1)C(=O)N[C@@H](CC(C)C)C(=O)NC(C)(C)C(=O)N[C@@H](Cc1ccsc1)C(=O)N[C@@H](Cc1csc3ccccc13)C(=O)N[C@@H](CCC(N)=O)C(N)=O)NC(=O)[C@H](CC(C)(C)C)NC(=O)[C@H](CC(=O)O)NC2=O [I-1978, Ac-PL3-Asp-Npg-S6-Asp-Asp-Ala-Ala-Phe-Leu-Aib-3Thi-BztA-Gln-NH2]
> 20 µM	0.138 µM	–	CC(=O)N1CCC[C@]12CC=CCCCC1(CCCC=CCCCOC(=O)N3CC[C@@](C(=O)N[C@@H](Cc4ccsc4)C(=O)N[C@@H](Cc4csc5ccccc45)C(=O)N[C@@H](CCC(N)=O)C(N)=O)(C3)NC(=O)[C@H](CCCNC(=N)N)NC(=O)[C@H](Cc3ccccc3)NC(=O)[C@H](C)NC(=O)C(C)(C)NC(=O)[C@H]([C@@H](C)O)NC(=O)[C@H](CC(N)=O)NC1=O)NC(=O)[C@H](CC(C)(C)C)NC(=O)[C@H](CC(=O)O)NC2=O (stereo partly drawn) [I-2407, Ac-PL3-Asp-Npg-B5-Asn-Thr-Aib-Ala-Phe-Arg-PyrS2-3Thi-BztA-Gln-NH2]
–	0.011 µM	11.8 µM	CC(=O)N1CCC[C@]12CC=CCCCC1(CCCC=CCCCOC(=O)N3CC[C@@](C(=O)N[C@@H](Cc4ccccc4Cl)C(=O)N[C@@H](Cc4csc5ccccc45)C(=O)N[C@@H](CC(N)=O)C(N)=O)(C3)NC(=O)[C@H](CO)NC(=O)[C@H](Cc3ccccc3)NC(=O)[C@H](C)NC(=O)[C@H](C)NC(=O)[C@H](Cc3cccc(C(=O)O)c3)NC(=O)[C@H](CC(=O)O)NC1=O)NC(=O)[C@H](CC(C)(C)C)NC(=O)[C@H](CC(=O)O)NC2=O (stereo partly drawn) [I-2038, Ac-PL3-Asp-Npg-B5-Asp-3COOHF-Ala-Ala-Phe-Ser-PyrS2-2C1F-BztA-Asn-NH2]
> 20 µM	0.02 µM	–	CC(=O)N1CCC[C@]12CC=CCCCC1(CCCC=CCCCOC(=O)N3CC[C@@](C(=O)N[C@@H](Cc4ccccc4Cl)C(=O)N[C@@H](Cc4csc5ccccc45)C(=O)N[C@@H](CCC(N)=O)C(N)=O)(C3)NC(=O)[C@H](CC(N)=O)NC(=O)[C@H](Cc3ccccc3)NC(=O)[C@H](C)NC(=O)[C@H](C)NC(=O)[C@H](CNCC(=O)O)NC(=O)[C@H](CC(=O)O)NC1=O)NC(=O)[C@H](CC(C)(C)C)NC(=O)[C@H](CC(=O)O)NC2=O (stereo partly drawn) [I-1572, Ac-PL3-Asp-Npg-B5-Asp-GA-Ala-Ala-Phe-Asn-PyrS2-2C1F-BztA-Gln-NH2]
–	0.01 µM	3.9 µM	CC(=O)N1CCC[C@]12CC=CCCCC1(CCCC=CCCCOC(=O)N3CC[C@@](C(=O)N[C@@H](Cc4ccccc4C(F)(F)F)C(=O)N[C@@H](Cc4csc5ccccc45)C(=O)N[C@@H](C)C(N)=O)(C3)NC(=O)[C@H](CC(C)C)NC(=O)[C@H](Cc3ccccc3)NC(=O)[C@H](C)NC(=O)[C@H](CC(N)=O)NC(=O)[C@H](Cc3cccc(C(=O)O)c3)NC(=O)[C@H](CC(=O)O)NC1=O)NC(=O)[C@H](CC(C)(C)C)NC(=O)[C@H](CC(=O)O)NC2=O (stereo partly drawn) [I-2058, Ac-PL3-Asp-Npg-B5-Asp-3COOHF-Asn-Ala-Phe-Leu-PyrS2-2F3MeF-BztA-Ala-NH2]
5.2 µM	0.005 µM	–	CC(=O)N1CCC[C@]12CC=CCCCC1(CCCC=CCCCOC(=O)N3CC[C@@](C(=O)N[C@@H](Cc4ccsc4)C(=O)N[C@H](C(=O)N[C@@H](C)C(N)=O)[C@H](C)c4ccc5ccccc5c4)(C3)NC(=O)[C@H](C(C)C)NC(=O)[C@H](Cc3ccccc3)NC(=O)[C@H](C)NC(=O)[C@H](CCC(N)=O)NC(=O)[C@H](Cc3cccc(C(=O)O)c3)NC(=O)[C@H](CC(=O)O)NC1=O)NC(=O)[C@H](CC(C)(C)C)NC(=O)[C@H](CC(=O)O)NC2=O (stereo partly drawn) [I-2312, Ac-PL3-Asp-Npg-B5-Asp-3COOHF-Gln-Ala-Phe-Val-PyrS2-3Thi-RbMe2NapA-Ala-NH2]
4.9 µM	0.01 µM	–	CC(=O)N1CCC[C@]12CC=CCCCC1(CCCC=CCCCOC(=O)N3CC[C@@](C(=O)N[C@@H](Cc4ccsc4)C(=O)N[C@@H](Cc4csc5ccccc45)C(=O)N[C@@H](CO)C(N)=O)(C3)NC(=O)[C@H](CC(C)C)NC(=O)[C@H](Cc3ccccc3)NC(=O)[C@H](C)NC(=O)[C@H](C)NC(=O)[C@H](CC(=O)O)NC(=O)[C@H](CC(=O)O)NC1=O)NC(=O)[C@H](CC(C)(C)C)NC(=O)[C@H](CC(=O)O)NC2=O (stereo partly drawn) [I-1493, Ac-PL3-Asp-Npg-B5-Asp-Asp-Ala-Ala-Phe-Leu-PyrS2-3Thi-BztA-Ser-NH2]
> 20 µM	0.105 µM	–	CNC(=O)C[C@@H]1NC(=O)[C@H](Cc2ccccc2)NC(=O)[C@H](C)NC(=O)C(C)(C)NC(=O)[C@H]([C@@H](C)O)NC(=O)[C@H](CC(N)=O)NC(=O)C2(CCCC=CCCCOC(=O)N3CC[C@@](C(=O)N[C@@H](Cc4ccsc4)C(=O)N[C@@H](Cc4csc5ccccc45)C(=O)N[C@@H](CC(N)=O)C(N)=O)(C3)NC1=O)CCCC=CC[C@]1(CCCN1C(C)=O)C(=O)N[C@@H](CC(=O)O)C(=O)N[C@@H](CC(C)(C)C)C(=O)N2 (stereo partly drawn) [I-2497, Ac-PL3-Asp-Npg-B5-Asn-Thr-Aib-Ala-Phe-MeAsn-PyrS2-3Thi-BztA-Asn-NH2]
–	0.033 µM	4.7 µM	CCCC[C@@H]1NC(=O)[C@H](Cc2cccc(C(=O)O)c2)NC(=O)[C@H](CC(=O)O)NC(=O)C2(CCCC=CCCCOC(=O)N3CC[C@@](C(=O)N[C@@H](Cc4ccsc4)C(=O)N[C@@H](Cc4csc5ccccc45)C(=O)N[C@@H](C)C(N)=O)(C3)NC(=O)[C@H](CC(C)C)NC(=O)[C@H](Cc3ccccc3)NC(=O)[C@H](C)NC1=O)CCCC=CC[C@]1(CCCN1C(C)=O)C(=O)N[C@@H](CC(=O)O)C(=O)N[C@@H](CC(C)(C)C)C(=O)N2 (stereo partly drawn) [I-1919, Ac-PL3-Asp-Npg-B5-Asp-3COOHF-nLeu-Ala-Phe-Leu-PyrS2-3Thi-BztA-Ala-NH2]
